The source made the active and inactive calls. No cut-off for these calls is given here.
Assays:
[1] = Absorption rate constant in Mycobacterium tuberculosis H37Rv; assay type: ADME
[2] = Elimination rate constant in Mycobacterium tuberculosis H37Rv; assay type: ADME
[3] = tested on: Mycobacterium tuberculosis; assay: Antimycobacterial activity against Mycobacterium tuberculosis H37Rv isolated from patient with tuberculosis at >= 15 mg/kg, po after 14 to 21 days; assay type: functional, organism-based; design: dose 15 mg/kg
[4] = Volume of distribution in Mycobacterium tuberculosis H37Rv; assay type: ADME, organism-based; details: in vivo
[5] = tested on: Mycobacterium tuberculosis; assay: Antimycobacterial activity against Mycobacterium tuberculosis H37Rv isolated from patient with tuberculosis assessed as bacterial load per day at 15 to 30 mg/kg, po after 2.5 to 3 weeks; assay type: functional
[6] = tested on: Mycobacterium tuberculosis; assay: Antimycobacterial activity against Mycobacterium tuberculosis H37Rv isolated from patient with tuberculosis assessed as bacterial load per day at >= 15 mg/kg, po after 4 days; assay type: functional
[7] = Ratio of AUC (0 to 24 hrs) to MIC associated with 1 log10CFU/ml bacterial count in patient infected with Mycobacterium tuberculosis H37Rv; assay type: functional
[8] = Ratio of AUC (0 to 24 hrs) to MIC associated with 2 log10CFU/ml bacterial count in patient infected with Mycobacterium tuberculosis H37Rv; assay type: functional
[9] = Ratio of AUC (0 to 24 hrs) to MIC associated with 0.5 log10CFU/ml bacterial count in patient infected with Mycobacterium tuberculosis H37Rv; assay type: functional
[10] = Clearance in Mycobacterium tuberculosis H37Rv; assay type: ADME

NC(=O)c1cnccn1 [PYRAZINAMIDE]
Ka [1]: 3.45 h⁻¹
k el [2]: 1.67e-05 s⁻¹
Activity [3]: inactive
Vd [4]: 1.68 L/kg
log10CFU/ml/day [5]: 0.09
log10CFU/ml/day [6]: 0.05
log10CFU/ml [7]: 20.26
log10CFU/ml [8]: 66.67
log10CFU/ml [9]: 9.43
clearance [10]: 1.67 mL/min/kg
